The molecules below were run against T1, human GPR119 receptor (Homo sapiens, UniProt Q8TDV5, S329A/T327A) (assay: cAMP assay (LANCE cAMP-384) in HEK293 cells stably expressing mutant human GPR119 receptor). Conditions: HEK293, 20 min; 10 μM; the 30th table; read-out: stimulation in % at 10 μM.
T1 construct: N-terminal leader […]; expressed in transfected cells
T1 sequence (Q8TDV5 with tags, fused parts or gaps T327A/S329A): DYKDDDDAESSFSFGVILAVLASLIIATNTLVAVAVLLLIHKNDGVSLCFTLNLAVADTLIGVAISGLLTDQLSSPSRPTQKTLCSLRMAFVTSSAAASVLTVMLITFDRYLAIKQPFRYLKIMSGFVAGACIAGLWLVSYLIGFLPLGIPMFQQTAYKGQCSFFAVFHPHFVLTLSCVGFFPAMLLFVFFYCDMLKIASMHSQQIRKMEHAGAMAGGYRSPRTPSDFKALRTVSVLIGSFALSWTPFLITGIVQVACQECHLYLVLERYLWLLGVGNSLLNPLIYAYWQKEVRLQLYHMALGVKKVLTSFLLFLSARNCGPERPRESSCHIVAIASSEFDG
Assay type: cell-based
Summary of the method: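 HEK293 cells stably expressing human GPR119 (T327A/S329A, modified N-terminus), 1000 cells/well, exposed to compound for 20 min at 37° C. cAMP quantified by LANCE TR-FRET against a standard curve; EC50 from 12 points, 30 μM to 100 pM, or % stimulation at 10 μM.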

Structure (SMILES) | activation at 10 µM [%]
Cc1nnn(Cc2cnc(N3CCC(=NOC4CCN(C(=O)OC(C)C)CC4)CC3)c(F)c2)n1 [Example 54-5] | 75

Same assay, conditions: HEK293, 20 min; at 10 μM; printed in EC50 column of the 36th table; read-out: stimulation in % at 10 μM

Structure (SMILES) | activation at 10 µM [%]
CS(=O)(=O)c1ccc(N2CCC(=NOC3CCN(Cc4nccs4)CC3)CC2)c(F)c1 [Example 66-6] | 63

Same assay, conditions: cAMP accumulation, HEK293 cells stably expressing mutant human GPR119; read-out: EC50

Structure (SMILES) | EC50 [nM]
Cc1cnccc1N1CCC(=NOC2CCN(C(=O)OC(C)C)CC2)CC1 [Example 2-51] | 951
CC(C)OC(=O)N1CCC(ON=C2CCN(c3ccc(C=O)c(O)c3)CC2)CC1 [Example 2-30] | > 10000
CC(C)OC(=O)N1CCC(ON=C2CCN(c3cc(F)c(NC(=N)N)cc3F)CC2)CC1 [Example 36-1, 4-[1-(2,5-Difluoro-4-guanidino-phenyl)-piperidin-4-ylideneaminooxy]-piperidine-1-carboxylic acid isopropyl ester] | 1320
CC(C)OC(=O)N1CCC(ON=C2CCN(c3cc(F)ccc3C=O)CC2)CC1 [Example 2-19] | 345
CC(C)OC(=O)N1CCC(ON=C2CCN(c3nccnc3Cl)CC2)CC1 [Example 2-10] | 363
CC(C)OC(=O)N1CCC(ON=C2CCN(c3cc(F)c(CNS(=O)(=O)C(C)C)cc3F)CC2)CC1 [Example 16-5] | 142
CC(C)OC(=O)N1CCC(ON=C2CCN(c3ncc(CO)cc3F)CC2)CC1 [Example 53-1, 4-(3′-Fluoro-5′-hydroxymethyl-2,3,5,6-tetrahydro-[1,2′]bipyridinyl-4-ylideneaminooxy)-piperidine-1-carboxylic acid isopropyl ester] | 224
CC(=O)c1cc(F)c(N2CCC(=NOC3CCN(C(=O)OC(C)C)CC3)CC2)cc1F [Example 2-23] | 375
CC(C)OC(=O)N1CCC(ON=C2CCN(c3cc(F)c(CN4CCCC4=O)cc3F)CC2)CC1 [Example 6-1, 4-{1-[2,5-Difluoro-4-(2-oxo-pyrrolidin-1-ylmethyl)-phenyl]-piperidin-4-ylideneaminooxy}-piperidine-1-carboxylic acid isopropyl ester] | 40
CCOC(=O)CNC(=O)NCc1cc(F)c(N2CCC(=NOC3CCN(C(=O)OC(C)C)CC3)CC2)cc1F [Example 16-9] | 401
CC(C)OC(=O)N1CCC(ON=C2CCN(c3cc(F)c(Cn4cncn4)cc3F)CC2)CC1 [Example 14-18] | 1350
COCc1cc(F)c(N2CCC(=NOC3CCN(C(=O)OC(C)C)CC3)CC2)cc1F [Example 49-1, 4-[1-(2,5-Difluoro-4-methoxymethyl-phenyl)-piperidin-4-ylideneaminooxy]-piperidine-1-carboxylic acid isopropyl ester] | 265
CC(C)OC(=O)N1CCC(ON=C2CCN(c3cc(F)c([N+](=O)[O-])cc3F)CC2)CC1 [Example 2-62] | 304
CC(C)OC(=O)N1CCC(ON=C2CCN(c3cc(F)c(C(=O)NCCC(=O)O)cc3F)CC2)CC1 [Example 30-2] | 1150
CC(C)OC(=O)N1CCC(ON=C2CCN(c3cc(F)c(C(=O)NCCN)cc3F)CC2)CC1 [Example 31-2] | 348
CC(C)OC(=O)N1CCC(ON=C2CCN(c3cc(F)c(CS(C)(=O)=O)cc3F)CC2)CC1 [Example 13-1, 4-[1-(2,5-Difluoro-4-methanesulfonylmethyl-phenyl)-piperidin-4-ylideneaminooxy]-piperidine-1-carboxylic acid isopropyl ester] | 30
CC(C)OC(=O)N1CCC(ON=C2CCN(c3cc(F)c(-c4cccs4)cc3F)CC2)CC1 [Example 27-1, 4-[1-(2,5-Difluoro-4-thiophen-2-yl-phenyl)-piperidin-4-ylideneaminooxy]-piperidine-1-carboxylic acid isopropyl ester] | 201
CC(C)OC(=O)N1CCC(ON=C2CCN(c3cc(F)c(CN4CCN(C)C4=O)cc3F)CC2)CC1 [Example 15-2] | 282
CC(C)OC(=O)N1CCC(ON=C2CCN(c3cc(F)c(CN4CCOC(CC(=O)O)C4)cc3F)CC2)CC1 (stereo not shown) [Example 5-2] | 5880

Same assay, conditions: the 15th table; read-out: EC50

Structure (SMILES) | EC50 [nM]
CC(CO)NC(=O)c1cc(F)c(N2CCC(=NOC3CCN(C(=O)OC(C)C)CC3)CC2)cc1F (stereo not shown) [Example 29-8] | 81
CC(C)OC(=O)N1CCC(ON=C2CCN(c3cc(F)c(C(=O)NCCC4CCNCC4)cc3F)CC2)CC1 [Example 29-32] | 73

Same assay, conditions: the 19th table; unit inferred; read-out: EC 50

Structure (SMILES) | EC50 [nM]
CCc1cnc(N2CCC(ON=C3CCN(c4cc(F)c(C(=O)NC5CCNC5)cc4F)CC3)CC2)nc1 (stereo not shown) [Example 29-123] | 407
CCc1cnc(N2CCC(ON=C3CCN(c4cc(F)c(C(=O)NCC5CCCN5C)cc4F)CC3)CC2)nc1 (stereo not shown) [Example 29-137] | 212

Same assay, conditions: the 32nd table; read-out: EC50

Structure (SMILES) | EC50 [nM]
CS(=O)(=O)c1ccc(N2CCC(=NOC3CCN(c4ccc(C#N)cn4)CC3)CC2)c(F)c1 [Example 63-23] | 1300

Same assay, conditions: the 33rd table; read-out: EC50

Structure (SMILES) | EC50 [nM]
C#CCOC(=O)N1CCC(ON=C2CCN(c3ccc(S(C)(=O)=O)cc3F)CC2)CC1 [Example 64-3] | 446
CC1CC1COC(=O)N1CCC(ON=C2CCN(c3ccc(S(C)(=O)=O)cc3F)CC2)CC1 (stereo not shown) [Example 64-8] | 32
CS(=O)(=O)c1ccc(N2CCC(=NOC3CCN(C(=O)OCC4CC4)CC3)CC2)c(F)c1 [Example 64-2] | 101
CCCCOC(=O)N1CCC(ON=C2CCN(c3ccc(S(C)(=O)=O)cc3F)CC2)CC1 [Example 64-45] | 54
CS(=O)(=O)c1ccc(N2CCC(=NOC3CCN(C(=O)OCC4CNCCO4)CC3)CC2)c(F)c1 (stereo not shown) [Example 64-38] | > 10000
CC(C)N(CCOC(=O)N1CCC(ON=C2CCN(c3ccc(S(C)(=O)=O)cc3F)CC2)CC1)C(C)C [Example 64-32] | > 10000

Same assay, conditions: the 34th table, compounds 65-1 to 65-24; read-out: EC50

Structure (SMILES) | EC50 [nM]
CC(C)COC(=O)N1CCC(ON=C2CCN(c3ccc(S(C)(=O)=O)cc3F)CC2)CC1 [Example 65-13] | 82

Same assay, conditions: the 36th table, compounds 66-1 to 66-51; read-out: EC50

Structure (SMILES) | EC50 [nM]
COc1ccc(CN2CCC(ON=C3CCN(c4ccc(S(C)(=O)=O)cc4F)CC3)CC2)cc1F [Example 66-38] | 435
CS(=O)(=O)c1ccc(N2CCC(=NOC3CCN(Cc4ccc(F)cc4)CC3)CC2)c(F)c1 [Example 66-33] | 822
COc1ccc(CN2CCC(ON=C3CCN(c4ccc(S(C)(=O)=O)cc4F)CC3)CC2)c(F)c1 [Example 66-50] | 1010
Cc1nc(CN2CCC(ON=C3CCN(c4ccc(S(C)(=O)=O)cc4F)CC3)CC2)cs1 [Example 66-14] | > 10000
CS(=O)(=O)c1ccc(N2CCC(=NOC3CCN(Cc4ccccc4Cl)CC3)CC2)c(F)c1 [Example 66-17] | 661
CCc1ccc(CN2CCC(ON=C3CCN(c4ccc(S(C)(=O)=O)cc4F)CC3)CC2)cc1 [Example 66-27] | 109

Same assay, conditions: the 37th table, compounds 66-52 to 66-64; read-out: EC50

Structure (SMILES) | EC50 [nM]
CCc1ccc(CN2CCC(ON=C3CCN(c4cc(F)c(S(C)(=O)=O)cc4F)CC3)CC2)cc1 [Example 66-55] | 37

Same assay, conditions: the 39th table, compounds 67-1 to 67-3; read-out: EC50

Structure (SMILES) | EC50 [nM]
Cc1ccc(N2CCC(ON=C3CCN(c4ccc(S(C)(=O)=O)cc4F)CC3)CC2)cn1 [Example 67-3] | 745

Same assay, conditions: the 43rd table, compounds 75-1 to 75-38; read-out: EC50

Structure (SMILES) | EC50 [nM]
CC(C)OC(=O)N1CCC(ON=C2CCN(c3cc(F)c(CC(=O)N4CCC(CN(C)C)CC4)cc3F)CC2)CC1 [Example 75-38] | 92
CC(C)OC(=O)N1CCC(ON=C2CCN(c3cc(F)c(CC(=O)N4CCC(CN5CCCCC5)C4)cc3F)CC2)CC1 (stereo not shown) [Example 75-35] | 171
CC(C)OC(=O)N1CCC(ON=C2CCN(c3cc(F)c(CC(=O)NCC4CCNCC4)cc3F)CC2)CC1 [Example 75-26] | 236

Same assay, conditions: the 44th table, compounds 77-1 to 77-14; read-out: EC50

Structure (SMILES) | EC50 [nM]
CCc1cnc(N2CCC(ON=C3CCN(c4cc(F)c(CC(N)=O)cc4F)CC3)CC2)nc1 [Example 77-4] | 32
CCc1cnc(N2CCC(ON=C3CCN(c4cc(F)c(CC(=O)N5CCC(N)CC5)cc4F)CC3)CC2)nc1 [Example 77-2] | 22
